{"source": "patent US20260224588A1", "about": "“BENZODIAZEPINONE-DERIVED INHIBITORS OF EGFR AND HER2” (The Research Foundation for the State University of New York, priority 2023, published 2026)", "key": {"PAK4": {"biological_target": "T1, PAK4 (Homo sapiens, UniProt O96013)", "T1 construct": "purchased Eurofins DiscoverX Corporation (KINOMEscan)", "assay": "KINOMEscan", "format": "binding", "settings": "1 μM of compound 4; read-out: POC"}, "PRKCH": {"biological_target": "PRKCH (Homo sapiens, UniProt P24723)", "assay": "KINOMEscan", "format": "binding", "settings": "1 μM of compound 4; read-out: POC"}, "NEK7": {"biological_target": "T2, NEK7 (Homo sapiens, UniProt Q8TDX7)", "T2 construct": "purchased Eurofins DiscoverX Corporation (KINOMEscan)", "assay": "KINOMEscan", "format": "binding", "settings": "1 μM of compound 4; read-out: POC"}, "MTOR": {"biological_target": "MTOR (Homo sapiens, UniProt P42345)", "assay": "KINOMEscan", "format": "binding", "settings": "1 μM of compound 4; read-out: POC"}, "NDR2": {"biological_target": "NDR2 (Homo sapiens, UniProt Q9Y2H1)", "assay": "KINOMEscan", "format": "binding", "settings": "1 μM of compound 4; read-out: POC"}, "PIK3CA(M1043I)": {"biological_target": "PIK3CA(M1043I) (Homo sapiens, UniProt P42336, M1043I)", "assay": "KINOMEscan", "format": "binding", "settings": "1 μM of compound 4; read-out: POC"}, "CAMKK2": {"biological_target": "CAMKK2 (Homo sapiens, UniProt Q96RR4)", "sequence (Q96RR4 whole entry)": "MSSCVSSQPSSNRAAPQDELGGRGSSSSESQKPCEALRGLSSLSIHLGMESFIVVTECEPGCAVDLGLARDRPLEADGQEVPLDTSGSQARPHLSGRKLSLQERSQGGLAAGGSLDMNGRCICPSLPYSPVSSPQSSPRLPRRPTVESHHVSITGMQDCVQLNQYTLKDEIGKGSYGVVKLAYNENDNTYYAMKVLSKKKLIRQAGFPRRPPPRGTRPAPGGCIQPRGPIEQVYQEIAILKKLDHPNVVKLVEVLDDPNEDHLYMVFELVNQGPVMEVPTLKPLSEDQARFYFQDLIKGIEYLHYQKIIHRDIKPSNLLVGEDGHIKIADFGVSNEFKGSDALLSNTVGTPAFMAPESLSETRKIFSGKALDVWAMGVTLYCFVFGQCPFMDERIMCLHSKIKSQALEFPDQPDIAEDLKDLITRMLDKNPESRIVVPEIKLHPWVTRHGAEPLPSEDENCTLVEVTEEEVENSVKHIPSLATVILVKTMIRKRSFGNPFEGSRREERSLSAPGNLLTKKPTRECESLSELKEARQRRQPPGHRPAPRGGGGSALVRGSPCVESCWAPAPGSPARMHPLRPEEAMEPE", "assay": "KINOMEscan", "format": "binding", "settings": "1 μM of compound 4; read-out: POC"}, "GRK4": {"biological_target": "T3, GRK4 (Homo sapiens, UniProt P32298)", "T3 construct": "purchased Eurofins DiscoverX Corporation", "assay": "KINOMEscan", "format": "binding", "settings": "1 μM of compound 4; read-out: POC"}, "EGFR [T790M/L858R]": {"biological_target": "T4, EGFR [T790M/L858R] (Homo sapiens, UniProt P00533, L858R/T790M)", "T4 construct": "EGFR [T790M/L858R] and EGFR [L858R], cytoplasmic domain (669-1210), GST-tagged, Carna; GST; purchased Carna 08-510", "T4 sequence (P00533 669-1210 T790M/L858R)": "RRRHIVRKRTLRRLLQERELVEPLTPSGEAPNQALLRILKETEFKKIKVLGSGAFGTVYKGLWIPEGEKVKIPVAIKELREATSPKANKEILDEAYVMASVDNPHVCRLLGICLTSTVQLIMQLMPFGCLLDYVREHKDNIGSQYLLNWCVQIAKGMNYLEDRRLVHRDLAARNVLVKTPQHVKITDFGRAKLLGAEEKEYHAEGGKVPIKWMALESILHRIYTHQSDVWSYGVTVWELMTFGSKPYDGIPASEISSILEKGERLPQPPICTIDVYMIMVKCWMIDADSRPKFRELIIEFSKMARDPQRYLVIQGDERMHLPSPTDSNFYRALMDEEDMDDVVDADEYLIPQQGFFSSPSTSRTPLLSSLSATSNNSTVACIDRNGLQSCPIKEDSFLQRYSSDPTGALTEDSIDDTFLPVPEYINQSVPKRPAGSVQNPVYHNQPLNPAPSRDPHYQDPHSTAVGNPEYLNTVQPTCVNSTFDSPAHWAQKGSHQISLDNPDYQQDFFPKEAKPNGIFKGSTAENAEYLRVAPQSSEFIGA", "assay": "Time-dependent kinase inhibition assay (Sox-based substrate)", "format": "biochemical", "protocol": "(§1) Time-dependent Kinase Inhibition Assays. Biochemical assays were performed with commercially available EGFR WT, cytoplasmic domain (669-1210), GST-tagged, Carna (Cat #/Lot #: 08-115/21CBS-0127H), EGFR [T790M/L858R] and EGFR [L858R], cytoplasmic domain (669-1210), GST-tagged, Carna (Cat #/Lot #: 08-510/12CBS-0765M). […] BSA was not included in this experiment to prevent interference with irreversible inhibitor characterization via off-target binding. All reactions were run for 240 minutes at 30° C. Time-dependent fluorescence from the Sox-based substrate was monitored in PerkinElmer ProxiPlate-384 Plus, white shallow well microplates (Cat. #6008280) Biotek Synergy Neo 2 microplate reader with excitation (360 nm) and emission (485 nm) wavelengths. 2 was dosed between 0 and 10 μM in 24-point curves with 1.5-fold dilutions. Fluorescence, determined with identical reactions but lacking purified enzyme or crude cell lysate was subtracted from the total fluorescence signal for each time point, with both determined in duplicate, to obtain corrected relative fluorescence units (RFU). Corrected RFU values then were plotted vs. time and the reaction velocity for the first ~40 min (initial reaction rates) were determined from the slope using GraphPad Prism (La Jolla, CA) with units of RFU/min."}, "EGFR WT": {"biological_target": "T5, EGFR WT (Homo sapiens, UniProt P00533)", "T5 construct": "EGFR WT, cytoplasmic domain (669-1210), GST-tagged, Carna; purchased Carna 08-115", "T5 sequence (P00533 669-1210)": "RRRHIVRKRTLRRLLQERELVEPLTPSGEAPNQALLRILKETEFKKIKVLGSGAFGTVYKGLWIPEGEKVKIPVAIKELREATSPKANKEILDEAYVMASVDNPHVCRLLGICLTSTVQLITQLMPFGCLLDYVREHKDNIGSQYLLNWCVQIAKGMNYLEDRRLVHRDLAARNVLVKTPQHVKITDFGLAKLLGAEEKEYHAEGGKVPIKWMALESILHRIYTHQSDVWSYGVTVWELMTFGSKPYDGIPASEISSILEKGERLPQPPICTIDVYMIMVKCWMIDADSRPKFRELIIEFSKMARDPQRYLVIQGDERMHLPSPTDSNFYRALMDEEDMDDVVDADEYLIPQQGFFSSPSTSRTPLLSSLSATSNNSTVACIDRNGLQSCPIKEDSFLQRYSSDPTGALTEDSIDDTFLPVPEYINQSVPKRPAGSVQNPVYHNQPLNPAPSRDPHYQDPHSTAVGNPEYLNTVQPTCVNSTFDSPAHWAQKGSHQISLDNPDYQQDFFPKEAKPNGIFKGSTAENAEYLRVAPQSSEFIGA", "assay": "Time-dependent kinase inhibition assay (Sox-based substrate)", "format": "biochemical", "protocol": "as §1"}, "TNK1": {"biological_target": "T6, TNK1 (Homo sapiens, UniProt Q13470)", "T6 construct": "purchased Eurofins DiscoverX Corporation", "assay": "KINOMEscan", "format": "binding", "settings": "1 μM of compound 4; read-out: POC"}, "JNK2": {"biological_target": "JNK2 (Homo sapiens, UniProt P45984)", "assay": "KINOMEscan", "format": "binding", "settings": "1 μM of compound 4; read-out: POC"}, "PFPK5(P. falciparum)": {"biological_target": "T7, PFPK5(P. falciparum) (Plasmodium falciparum, UniProt P61075)", "T7 construct": "purchased Eurofins DiscoverX Corporation (KINOMEscan)", "assay": "KINOMEscan", "format": "binding", "settings": "1 μM of compound 4; read-out: POC"}, "FLT3(R834Q)": {"biological_target": "T8, FLT3(R834Q) (Homo sapiens, UniProt P36888, R834Q)", "T8 construct": "purchased Eurofins DiscoverX Corporation", "assay": "KINOMEscan", "format": "binding", "settings": "1 μM of compound 4; read-out: POC"}, "IRAK1": {"biological_target": "IRAK1 (Homo sapiens, UniProt P51617)", "assay": "KINOMEscan", "format": "binding", "settings": "1 μM of compound 4; read-out: POC"}, "AMPK-alpha2": {"biological_target": "AMPK-alpha2 (Homo sapiens, UniProt P54646)", "assay": "KINOMEscan", "format": "binding", "settings": "1 μM of compound 4; read-out: POC"}, "EPHA6": {"biological_target": "T9, EPHA6 (Homo sapiens, UniProt Q9UF33)", "T9 construct": "purchased Eurofins DiscoverX (KINOMEscan service)", "assay": "KINOMEscan", "format": "binding", "settings": "1 μM of compound 4; read-out: POC"}, "PKN2": {"biological_target": "PKN2 (Homo sapiens, UniProt Q16513)", "assay": "KINOMEscan", "format": "binding", "settings": "1 μM of compound 4; read-out: POC"}, "[1]": {"biological_target": "T10, RSK2(Kin.Dom.1-N-terminal) (Homo sapiens, UniProt P51812)", "T10 construct": "RSK2(Kin.Dom.1-N-terminal); purchased Eurofins DiscoverX Corporation (KINOMEscan screening service)", "T10 sequence (P51812 68-327 limits assumed)": "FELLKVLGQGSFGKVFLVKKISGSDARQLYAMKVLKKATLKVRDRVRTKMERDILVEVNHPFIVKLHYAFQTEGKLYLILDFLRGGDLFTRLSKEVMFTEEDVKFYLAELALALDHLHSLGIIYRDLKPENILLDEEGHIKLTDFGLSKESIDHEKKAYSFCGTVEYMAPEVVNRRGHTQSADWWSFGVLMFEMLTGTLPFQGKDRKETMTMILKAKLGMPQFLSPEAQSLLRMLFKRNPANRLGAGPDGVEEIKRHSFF", "assay": "KINOMEscan", "format": "binding", "settings": "1 μM of compound 4; read-out: POC"}, "[2]": {"biological_target": "T11, ABL1(E255K)-phosphorylated (Homo sapiens, UniProt P00519, E255K)", "T11 construct": "purchased Eurofins DiscoverX Corporation", "T11 sequence (P00519 whole entry E255K)": "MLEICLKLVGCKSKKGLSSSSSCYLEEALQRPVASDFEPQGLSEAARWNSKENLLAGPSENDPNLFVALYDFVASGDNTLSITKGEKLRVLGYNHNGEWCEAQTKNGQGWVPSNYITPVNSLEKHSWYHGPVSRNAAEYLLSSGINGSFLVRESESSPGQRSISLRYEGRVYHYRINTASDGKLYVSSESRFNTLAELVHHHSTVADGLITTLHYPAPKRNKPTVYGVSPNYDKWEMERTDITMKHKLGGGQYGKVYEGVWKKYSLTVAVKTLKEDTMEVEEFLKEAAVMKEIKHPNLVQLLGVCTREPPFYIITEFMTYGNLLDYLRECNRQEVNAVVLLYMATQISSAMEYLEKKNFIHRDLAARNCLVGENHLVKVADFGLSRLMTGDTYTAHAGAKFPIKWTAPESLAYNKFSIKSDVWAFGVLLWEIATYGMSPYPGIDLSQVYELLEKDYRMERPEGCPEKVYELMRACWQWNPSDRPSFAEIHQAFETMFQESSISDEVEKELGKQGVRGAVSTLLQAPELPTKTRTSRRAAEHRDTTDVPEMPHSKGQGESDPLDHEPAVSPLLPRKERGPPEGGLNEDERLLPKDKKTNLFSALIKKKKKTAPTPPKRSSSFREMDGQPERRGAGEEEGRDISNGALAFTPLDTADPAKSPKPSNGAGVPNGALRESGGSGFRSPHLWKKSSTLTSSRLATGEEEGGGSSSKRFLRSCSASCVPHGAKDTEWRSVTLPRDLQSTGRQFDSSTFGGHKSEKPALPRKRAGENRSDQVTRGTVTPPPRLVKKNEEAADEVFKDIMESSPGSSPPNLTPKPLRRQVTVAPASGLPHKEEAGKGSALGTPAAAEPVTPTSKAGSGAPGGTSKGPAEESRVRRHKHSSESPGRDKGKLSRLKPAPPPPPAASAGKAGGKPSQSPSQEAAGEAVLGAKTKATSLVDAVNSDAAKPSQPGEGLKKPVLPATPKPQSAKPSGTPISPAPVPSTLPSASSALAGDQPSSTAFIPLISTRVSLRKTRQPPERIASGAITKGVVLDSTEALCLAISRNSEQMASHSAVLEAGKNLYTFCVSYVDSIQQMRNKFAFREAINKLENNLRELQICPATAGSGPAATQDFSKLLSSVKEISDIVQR", "assay": "KINOMEscan", "format": "binding", "settings": "1 μM of compound 4; read-out: POC"}, "FLT3(ITD + F691L)": {"test_system": "FLT3(ITD + F691L)", "assay": "KINOMEscan", "format": "binding", "settings": "1 μM of compound 4"}, "STK35": {"biological_target": "T12, STK35 (Homo sapiens, UniProt Q8TDR2)", "T12 construct": "purchased Eurofins DiscoverX (KINOMEscan service)", "assay": "KINOMEscan", "format": "binding", "settings": "1 μM of compound 4; read-out: POC"}, "CSNK1A1L": {"biological_target": "CSNK1A1L (Homo sapiens, UniProt Q8N752)", "sequence (Q8N752 whole entry)": "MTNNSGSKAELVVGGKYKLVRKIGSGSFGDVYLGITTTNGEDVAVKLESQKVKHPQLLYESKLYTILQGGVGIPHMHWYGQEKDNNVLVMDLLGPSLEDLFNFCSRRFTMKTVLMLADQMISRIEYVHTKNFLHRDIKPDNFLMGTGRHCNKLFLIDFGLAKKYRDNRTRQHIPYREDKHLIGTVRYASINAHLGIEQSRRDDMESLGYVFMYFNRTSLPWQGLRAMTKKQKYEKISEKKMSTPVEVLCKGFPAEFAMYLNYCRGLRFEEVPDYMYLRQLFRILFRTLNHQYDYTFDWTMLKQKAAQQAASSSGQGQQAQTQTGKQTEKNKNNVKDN", "assay": "KINOMEscan", "format": "binding", "settings": "1 μM of compound 4; read-out: POC"}, "FGFR2": {"biological_target": "T13, FGFR2 (Homo sapiens, UniProt P21802)", "T13 construct": "purchased Eurofins DiscoverX Corporation", "T13 sequence (P21802 22-821)": "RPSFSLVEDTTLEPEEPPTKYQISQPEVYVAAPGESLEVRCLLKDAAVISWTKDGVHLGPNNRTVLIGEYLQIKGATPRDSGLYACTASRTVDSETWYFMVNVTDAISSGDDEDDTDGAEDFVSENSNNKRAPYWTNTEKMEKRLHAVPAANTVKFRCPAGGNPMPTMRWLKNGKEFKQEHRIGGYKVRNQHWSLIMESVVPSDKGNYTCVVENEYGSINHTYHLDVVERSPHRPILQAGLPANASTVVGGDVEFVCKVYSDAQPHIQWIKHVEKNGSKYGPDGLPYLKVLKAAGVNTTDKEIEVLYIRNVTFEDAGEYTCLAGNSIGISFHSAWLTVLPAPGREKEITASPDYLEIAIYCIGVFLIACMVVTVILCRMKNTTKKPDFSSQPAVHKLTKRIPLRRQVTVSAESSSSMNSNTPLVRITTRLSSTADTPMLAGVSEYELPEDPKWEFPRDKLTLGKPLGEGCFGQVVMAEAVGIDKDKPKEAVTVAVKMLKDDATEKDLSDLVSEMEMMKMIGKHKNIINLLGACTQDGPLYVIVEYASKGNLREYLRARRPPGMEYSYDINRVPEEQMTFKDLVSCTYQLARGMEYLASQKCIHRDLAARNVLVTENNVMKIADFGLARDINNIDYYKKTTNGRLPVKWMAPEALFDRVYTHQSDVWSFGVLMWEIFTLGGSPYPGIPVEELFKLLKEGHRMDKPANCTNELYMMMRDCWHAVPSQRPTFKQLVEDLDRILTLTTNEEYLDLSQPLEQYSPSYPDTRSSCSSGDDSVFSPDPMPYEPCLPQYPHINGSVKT", "assay": "KINOMEscan", "format": "binding", "settings": "1 μM of compound 4; read-out: POC"}, "RIOK2": {"biological_target": "T14, RIOK2 (Homo sapiens, UniProt Q9BVS4)", "T14 construct": "purchased Eurofins DiscoverX Corporation (KINOMEscan screening service)", "assay": "KINOMEscan", "format": "binding", "settings": "1 μM of compound 4; read-out: POC"}, "EGFR(G719C)": {"biological_target": "T15, EGFR(G719C) (Homo sapiens, UniProt P00533, G719C)", "T15 construct": "purchased Eurofins DiscoverX (KINOMEscan service)", "assay": "KINOMEscan", "format": "binding", "settings": "1 μM of compound 4; read-out: POC"}, "MEK1": {"biological_target": "MEK1 (Homo sapiens, UniProt Q02750)", "assay": "KINOMEscan", "format": "binding", "settings": "1 μM of compound 4; read-out: POC"}, "TNNI3K": {"biological_target": "T16, TNNI3K (Homo sapiens, UniProt Q59H18)", "T16 construct": "purchased Eurofins DiscoverX Corporation", "T16 sequence (Q59H18 whole entry)": "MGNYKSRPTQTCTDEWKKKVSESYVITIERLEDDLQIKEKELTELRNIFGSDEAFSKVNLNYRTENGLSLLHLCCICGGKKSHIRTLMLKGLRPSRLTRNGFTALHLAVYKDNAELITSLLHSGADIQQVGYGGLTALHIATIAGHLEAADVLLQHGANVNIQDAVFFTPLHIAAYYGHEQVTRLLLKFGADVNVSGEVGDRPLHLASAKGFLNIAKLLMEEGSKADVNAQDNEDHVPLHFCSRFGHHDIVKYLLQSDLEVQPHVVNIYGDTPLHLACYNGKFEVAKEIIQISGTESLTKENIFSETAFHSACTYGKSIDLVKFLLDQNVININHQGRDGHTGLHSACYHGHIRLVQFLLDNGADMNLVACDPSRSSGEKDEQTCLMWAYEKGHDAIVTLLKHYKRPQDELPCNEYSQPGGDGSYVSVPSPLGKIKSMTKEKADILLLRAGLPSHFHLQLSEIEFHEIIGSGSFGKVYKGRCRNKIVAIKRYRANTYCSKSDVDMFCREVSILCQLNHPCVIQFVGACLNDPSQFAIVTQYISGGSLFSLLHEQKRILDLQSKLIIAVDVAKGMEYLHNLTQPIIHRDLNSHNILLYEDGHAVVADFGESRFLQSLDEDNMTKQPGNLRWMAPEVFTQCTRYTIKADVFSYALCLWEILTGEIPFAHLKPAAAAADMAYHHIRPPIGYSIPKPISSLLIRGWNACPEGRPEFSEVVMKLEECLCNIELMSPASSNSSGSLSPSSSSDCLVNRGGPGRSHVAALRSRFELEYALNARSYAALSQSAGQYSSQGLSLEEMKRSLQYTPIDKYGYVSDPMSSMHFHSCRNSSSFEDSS", "assay": "KINOMEscan", "format": "binding", "settings": "1 μM of compound 4; read-out: POC"}, "SgK110": {"biological_target": "T17, SgK110 (Homo sapiens, UniProt P0C264)", "T17 construct": "purchased Eurofins DiscoverX (KINOMEscan service)", "assay": "KINOMEscan", "format": "binding", "settings": "1 μM of compound 4; read-out: POC"}}}
{"molecule": "C=CC(=O)Nc1ccc(OC)c(Nc2cc(-c3[nH]c(CC)nc3-c3cccc(NC(=O)c4cccc5c4NC(=O)c4ccccc4N5)c3)ccn2)c1", "note": "[Compound 4, N-(3-(5-(2-((5-Acrylamido-2-methoxyphenyl)amino)pyridin-4-yl)-2-ethyl-1H-imidazol-4-yl)phenyl)-11-oxo-10,11-dihydro-5H-dibenzo[b,e][1,4]diazepine-9-carboxamide]", "values": [{"measurement": "remaining binding at 1 µM", "setting": "PAK4", "result": 89, "unit": "%"}, {"measurement": "remaining binding at 1 µM", "setting": "PRKCH", "result": 69, "unit": "%"}, {"measurement": "remaining binding at 1 µM", "setting": "NEK7", "result": 86, "unit": "%"}, {"measurement": "remaining binding at 1 µM", "setting": "MTOR", "result": 100, "unit": "%"}, {"measurement": "remaining binding at 1 µM", "setting": "NDR2", "result": 77, "unit": "%"}, {"measurement": "remaining binding at 1 µM", "setting": "PIK3CA(M1043I)", "result": 55, "unit": "%"}, {"measurement": "remaining binding at 1 µM", "setting": "CAMKK2", "result": 95, "unit": "%"}, {"measurement": "remaining binding at 1 µM", "setting": "GRK4", "result": 100, "unit": "%"}, {"measurement": "Ki", "setting": "EGFR [T790M/L858R]; read-out: KI, LRTM", "result": "1600 ± 100", "unit": "nM"}, {"measurement": "kinact", "setting": "EGFR [T790M/L858R]; read-out: kinact, LRTM (converted)", "result": 0.00167, "unit": "s⁻¹"}, {"measurement": "kinact/KI", "setting": "EGFR [T790M/L858R]; read-out: kinact/KI, LRTM", "result": "1070 ± 40", "unit": "M⁻¹ s⁻¹"}, {"measurement": "Ki", "setting": "EGFR WT", "result": "1200 ± 40", "unit": "nM"}, {"measurement": "kinact", "setting": "EGFR WT", "result": 0.003, "unit": "s⁻¹"}, {"measurement": "kinact/KI", "setting": "EGFR WT", "result": "2500 ± 10", "unit": "M⁻¹ s⁻¹"}, {"measurement": "remaining binding at 1 µM", "setting": "TNK1", "result": 22, "unit": "%"}, {"measurement": "remaining binding at 1 µM", "setting": "JNK2", "result": 78, "unit": "%"}, {"measurement": "remaining binding at 1 µM", "setting": "PFPK5(P. falciparum)", "result": 100, "unit": "%"}, {"measurement": "remaining binding at 1 µM", "setting": "FLT3(R834Q)", "result": 100, "unit": "%"}, {"measurement": "remaining binding at 1 µM", "setting": "IRAK1", "result": 85, "unit": "%"}, {"measurement": "remaining binding at 1 µM", "setting": "AMPK-alpha2", "result": 56, "unit": "%"}, {"measurement": "remaining binding at 1 µM", "setting": "EPHA6", "result": 90, "unit": "%"}, {"measurement": "remaining binding at 1 µM", "setting": "PKN2", "result": 100, "unit": "%"}, {"measurement": "remaining binding at 1 µM", "setting": "[1]", "result": 100, "unit": "%"}, {"measurement": "remaining binding at 1 µM", "setting": "[2]", "result": 65, "unit": "%"}, {"measurement": "POC", "setting": "FLT3(ITD + F691L)", "result": 79}, {"measurement": "remaining binding at 1 µM", "setting": "STK35", "result": 69, "unit": "%"}, {"measurement": "remaining binding at 1 µM", "setting": "CSNK1A1L", "result": 91, "unit": "%"}, {"measurement": "remaining binding at 1 µM", "setting": "FGFR2", "result": 100, "unit": "%"}, {"measurement": "remaining binding at 1 µM", "setting": "RIOK2", "result": 83, "unit": "%"}, {"measurement": "remaining binding at 1 µM", "setting": "EGFR(G719C)", "result": 6.5, "unit": "%"}, {"measurement": "remaining binding at 1 µM", "setting": "MEK1", "result": 100, "unit": "%"}, {"measurement": "remaining binding at 1 µM", "setting": "TNNI3K", "result": 89, "unit": "%"}, {"measurement": "remaining binding at 1 µM", "setting": "SgK110", "result": 100, "unit": "%"}]}
